The numbers were not newly measured in patent US20260097052A1, “NOVEL ORAL CANNABINOID FORMULATIONS” (Esolate Pharmaceuticals Ltd, priority 2023, published 2026), which cites them from elsewhere.

The conditions of the data set: humans.

SMILES strings stand for the structures.

Take `C=C(C)[C@@H]1CCC(C)=C[C@H]1c1c(O)cc(CCCCC)cc1O` [CBD, cannabidiol]: the Oral bioavailability entry is “approximately 6%”.
